# Active and inactive are the calls of the source. No cut-off for these calls is given here.
# Assays:
# VSMC = assay: Antiproliferative activity against angiotensin 2-stimulated Wistar rat VSMC after 48 hrs by MTT method; format: functional, cell-based
# PC-12 = assay: Neuroprotective activity against hydrogen peroxide-induced cell damage in rat PC12 cells assessed as increase in cell viability at 3.125 to 50 uM preincubated with compound followed by H2O2 challenge by MTT assay; format: functional, cell-based
SMILES,growth inhibition (GI) (VSMC),Activity (PC-12)
COC(=O)[C@H]1O[C@@H](O[C@H]2CC[C@]3(C)[C@H]4CC=C5[C@@H]6CC(C)(C)CC[C@]6(C(=O)O[C@@H]6O[C@H](CO)[C@@H](O)[C@H](O)[C@H]6O)CC[C@@]5(C)[C@]4(C)CC[C@H]3C2(C)C)[C@H](O)[C@@H](O)[C@@H]1O,Dose-dependent effect,–
C=C[C@@H](O)C#CC#CC[C@@H](O)[C@@H](CCCCCCC)OC(=O)[C@H]1O[C@@H](O[C@H]2CC[C@]3(C)[C@H]4CC=C5[C@@H]6CC(C)(C)CC[C@]6(C(=O)O)CC[C@@]5(C)[C@]4(C)CC[C@H]3C2(C)C)[C@H](O[C@@H]2O[C@H](CO)[C@@H](O)[C@H](O)[C@H]2O)[C@@H](O)[C@@H]1O,–,Active
CCCCOC(=O)[C@H]1O[C@@H](O[C@H]2CC[C@]3(C)[C@H]4CC=C5[C@@H]6CC(C)(C)CC[C@]6(C(=O)O)CC[C@@]5(C)[C@]4(C)CC[C@H]3C2(C)C)[C@H](O[C@@H]2O[C@H](CO)[C@@H](O)[C@H](O)[C@H]2O)[C@@H](O)[C@@H]1O,–,Active
CCCCOC(=O)[C@H]1O[C@@H](O[C@H]2CC[C@]3(C)[C@H]4CC=C5[C@@H]6CC(C)(C)CC[C@]6(C(=O)O[C@@H]6O[C@H](CO)[C@@H](O)[C@H](O)[C@H]6O)CC[C@@]5(C)[C@]4(C)CC[C@H]3C2(C)C)[C@H](O)[C@@H](O)[C@@H]1O[C@@H]1O[C@@H](CO)[C@H](O)[C@H]1O,–,Active

# — ChEMBL document CHEMBL3994601, “Polyacetylenic Oleanane-Type Triterpene Saponins from the Roots of Panax japonicus” (J Nat Prod, 2016)
